Values after ≈ are worked out from the molar mass of the structure shown. Values joined by “and” are separate entries in the source; they are usually repeats but may differ in a detail not shown here. Equal values may be shown once.
Experiments:
B. cinerea [1] = experiment: Spray treatment of tomato plants with hexanoic acid potassium salt, B. cinerea inoculation; assay type: in vivo, Botrytis cinerea; settings: for % inhibition of infection versus control: 72 h
Description: Hexanoic acid potassium salt was provided by preparing a mole-to-mole solution of hexanoic acid with K2CO3. A concentrated solution was prepared, adjusted to pH 6, and then dilutions were performed in order to provide in-use concentrations, namely, 20 mM, 10 mM, 6 mM and 3 mM.
The plants were treated with the formed salt by spray application and then left to dry for 30 minutes. Afterwards, treated leaves, which were previously incubated for 2 h in Gamborg medium supplemented with sucrose and phosphate, were inoculated with 5 μl of a suspension containing 10^6 spores/ml of B. cinerea, and then stored in a high-humidity chamber at 25° C. for 72 h.
The infection diameter was measured and, finally, the germination percentage was determined.

B. cinerea spores = experiment: Direct antimicrobial effect in vitro: spore germination, mycelium growth, MIC/MFC in PDB; assay type: cell-based, Botrytis cinerea
Description: Test mixture contained 4×10^6 conidia/ml PDB (potatodextrose broth, Difco, Detroit, Mich., USA). Treatments (hexanoic acid and heptanoic acid) were added to PDB from stock solutions in order to obtain the different concentrations to be used (0.06 to 30 mM). Medium pH was adjusted to 3.6-5.5 using HCl or NaOH. One ml of each mixture was dispensed into sterile 24-well microplates and then incubated at 20° C. under gentle stirring. Percentage of germinated spores was calculated after 20 h incubation by staining with 0.1% lacto-fucshin (1:1) followed by microscopic observation of 100 spores. Spores were considered to be germinated when the length of germ tube was equal to or greater than spore. For assessment of efficacy in long-term treatments, test culture was left for a 7-day incubation period under previously described conditions, and mycelium development was assessed as follows: 3 ml of each culture were vacuum-filtered through pre-weighed nitrocellulose filters (Millipore, ref. HAWP02500). The filters were dried at 85° C. until weight was constant at room temperature.
For measurement of treatment effects on mycelium growth, 9×10^6 spores were inoculated to a final volume of 150 ml PDB. After 20 h incubation, spores were examined for germination by microscopic analysis, then treatments were added, and pH was adjusted to 5.5. Cultures were incubated at 20° C. under gentle stirring. After 96 h, mycelium growth was measured by determining dry weight, as described herein. […] After MIC determination, minimum fungicidal concentration (MFC) was measured as follows. After 20 h incubation, an aliquot of the cultures, in which no growth had been detected, was taken, then washed three times and added to a fresh medium without added treatment. After 20 h incubation, under previously described conditions, the germination percentage was estimated. MFC is the minimum concentration of test compound at which microorganisms are not recovered.

Pseudomonas syringe = experiment: Induced resistance in Arabidopsis thaliana against Pseudomonas syringe; assay type: in vivo
B. cinerea [2] = experiment: Hexanoic acid root application in soil cultivation, protection of Arabidopsis plants against B. cinerea; assay type: in vivo, Botrytis cinerea
Description: (§1) Experiments were performed with 5-week-old Arabidopsis plants cultivated in soil. Two weeks after germination, the plants were transplanted into single pots and kept at a temperature of 20° C. day/18° C. night and 8.5 h light cycle for 24 h and 60% relative humidity (RH).
(§2) The plants were treated with different concentrations of hexanoic acid (0.6 mM, 0.8 mM and 1 mM) and inoculated with 6 μl of 2.5×10^4 spores/mL Botrytis cinerea and 2×10^6 spores/mL Alternaria brassicicola.
(§3) Sampling was performed at 48, 72, 96 and 120 hours after inoculation.

A. Brassicicola = experiment: Hexanoic acid root application in soil cultivation, protection of Arabidopsis plants against A. Brassicicola; assay type: in vivo, Alternaria brassicicola; settings: 0.8 mM
Description: as §1, §2, §3

Botrytis cinerea = experiment: Post-harvest treatment: combined inoculation of hexanoic acid and Botrytis cinerea spores into tomato fruits; assay type: in vivo; settings: combined inoculation with spores, preliminary studies
Description: Preliminary studies were also performed on the application of hexanoic acid for post-harvest treatment.

B. cinerea [3] = experiment: Hexanoic acid root application in soil cultivation, protection of tomato plants against B. cinerea; assay type: in vivo, Botrytis cinerea; settings: control: water
Description: (§4) Experiments were performed with 4-week-old tomato plants (Cv. Ailsa Craig) in hydroponic cultivation. Before initiation of treatment, the plants were maintained in hydroponic cultivation for 1 week for habituation under such cultivation conditions. Treatment comprised the addition of hexanoic acid to a nutrient solution (Hoagland solution) at the following concentrations: 0.06 mM, 0.6 mM, 3 mM, 6 mM, 16 mM and 20 mM, pH was adjusted to 6. After 48 hours of treatment, the leaflets of the third and fourth true leaves were inoculated with 5 μl of a suspension containing 10^6 conidia B. cinerea/ml. Spores had previously been incubated in Gamborg medium (Duchefa Biochemie, The Netherlands) supplemented with sucrose and phosphate, over a period of 2 h. Spores were inoculated in this medium. For each treatment, 10 plants were used, which were kept under humidity- and temperature-controlled conditions (80% RH, 21° C.). Sampling was performed at 48, 72, 96 and 120 hours after inoculation.
Plants were cultivated in soil and the solutions of hexanoic acid, at different concentrations, were prepared and applied in the same manner as that described above. Control was water.

B. cinerea [4] = experiment: Hexanoic acid root application in hydroponic cultivation, protection of tomato plants against B. cinerea; assay type: in vivo, Botrytis cinerea; settings: control: water
Description: as §4

B. cinerea [5] = experiment: Spray application of hexanoic acid on tomato plants against B. cinerea; assay type: in vivo, Botrytis cinerea; settings: for % inhibition of invention versus control: spray application, tomato plants
Peronospora parasitica = experiment: Induced resistance in Arabidopsis thaliana against Peronospora parasitica; assay type: in vivo

CCCCCC(=O)[O-].[K+] [Hexanoic acid potassium salt]
% inhibition of infection versus control (B. cinerea [1]; 6 mM): 52.1% | % inhibition of infection versus control (B. cinerea [1]; 10 mM): 61.3% | % inhibition of infection versus control (B. cinerea [1]; 20 mM, listed as potassium salt, potassium salt): 80% | % inhibition of infection versus control (B. cinerea [1]; 20 mM, potassium salt): 80.3% | % inhibition of infection versus control (B. cinerea [1]; 3M): 49.8% | inhibition at 3000 µM (B. cinerea [1]; Botrytis cinerea, 3 mM, read-out: inhibition of fungal infection): ~50%

CCCCCCC(=O)O [heptanoic acid]
concentration from which spore germination is significantly decreased / inhibited (B. cinerea spores; B. cinerea spores in vitro): ≥ 6 mM | effect on spore germination compared with hexanoic acid (B. cinerea spores; B. cinerea spores in vitro): the same at the same concentration range | germ tube development (B. cinerea spores; B. cinerea spores in vitro): entirely prevents germ tube development

CCCCCC(=O)O [hexanoic acid]
induced resistance (Pseudomonas syringe): induced resistance | % inhibition of infection versus control (B. cinerea [2]; 0.6 mM): 10% | % inhibition of infection versus control (B. cinerea [2]; 0.8 mM): 28% | % inhibition of infection versus control (B. cinerea [2]; 1 mM): 38% | % inhibition of infection versus control (A. Brassicicola; time after inoculation 48): 54.5% | % inhibition of infection versus control (A. Brassicicola; time after inoculation 72): 40.5% | % inhibition of infection versus control (A. Brassicicola; time after inoculation 96): 6.3% | concentration from which spore germination is significantly decreased / inhibited (B. cinerea spores; B. cinerea spores in vitro): ≥ 3 mM | concentration that entirely inhibits germination (B. cinerea spores; B. cinerea spores in vitro): 16 mM | MFC (B. cinerea spores; Botrytis cinerea, 20 h, read-out: minimum fungicidal concentration (MFC)): 16 mM (≈ 1860 µg/mL) | reversibility of the inhibitor effect after spore washing (B. cinerea spores; spores treated at MFC, treatment removed by washing): irreversible fungicidal effect | mycelium development in already germinated spores (B. cinerea spores; treatment added after germination): inhibits mycelium development | infection rate of treated fruits (Botrytis cinerea): significant decrease in the infection rate | % inhibition of infection versus control (B. cinerea [3]; 0.06 mM): 60.15% | % inhibition of infection versus control (B. cinerea [3]; 0.6 mM): 49.77% | % inhibition of infection versus control (B. cinerea [4]; 0.06 mM): 35.57% | % inhibition of infection versus control (B. cinerea [4]; 0.6 mM): 48.90% | % inhibition of infection versus control (B. cinerea [4]; 3 mM): 64.06% | % inhibition of infection versus control (B. cinerea [4]; 6 mM): 61.98% | % inhibition of infection versus control (B. cinerea [4]; 16 mM): 63.52% | % inhibition of infection versus control (B. cinerea [4]; 20 mM): 53.60% | % inhibition of invention versus control (B. cinerea [5]; 3 mM): 7.63% | % inhibition of invention versus control (B. cinerea [5]; 16 mM): 67% and 66.85% | % inhibition of invention versus control (B. cinerea [5]; 20 mM): 81% and 81.47% | curative effect in plants already inoculated (B. cinerea [5]; plants already inoculated with B. cinerea, preliminary results): restrains the progress of necrosis | induced resistance (Peronospora parasitica): induced resistance

Source: patent US20100080860A1, “Application of short-chain monocarboxylic acids for crop protection” (UNIVERSITAT JAUME I, priority 2005, published 2010)
